Tested on: Hepatotoxicity
Assay: Literature-mined compound from Fourches et al multi-species drug-induced liver injury (DILI) dataset, effect in humans
Conditions: human

| Molecule | Hepatotoxicity |
| --- | --- |
| c1ccc2[nH]c(-c3cscn3)nc2c1 [THIABENDAZOLE] | drug-induced liver injury reported |
| Cc1c(N(C)CS(=O)(=O)[O-])c(=O)n(-c2ccccc2)n1C.[Na+] [DIPYRONE SODIUM] | drug-induced liver injury reported |
| LACTOSE, ANHYDROUS | no drug-induced liver injury reported |
| O=c1oc2ccccc2c(O)c1Cc1c(O)c2ccccc2oc1=O [DICUMAROL] | drug-induced liver injury reported |
| CC1Cc2ccccc2N1NC(=O)c1ccc(Cl)c(S(N)(=O)=O)c1 (centres undefined) [INDAPAMIDE] | no drug-induced liver injury reported |
| CCC(C)n1ncn(-c2ccc(N3CCN(c4ccc(OCC5COC(Cn6cncn6)(c6ccc(Cl)cc6Cl)O5)cc4)CC3)cc2)c1=O (centres undefined) [ITRACONAZOLE] | drug-induced liver injury reported |
| O=C(O)C(S)C(S)C(=O)O (centres undefined) | drug-induced liver injury reported |
| CCCc1cc(C(N)=S)ccn1 [PROTIONAMIDE] | drug-induced liver injury reported |
| CCC1(c2ccc(N)cc2)CCC(=O)NC1=O (centres undefined) [AMINOGLUTETHIMIDE] | no drug-induced liver injury reported |
| CCC(=O)O[C@H]1CC[C@H]2[C@@H]3CCC4=CC(=O)CC[C@]4(C)[C@H]3CC[C@]12C [TESTOSTERONE PROPIONATE] | no drug-induced liver injury reported |
| CC(C)(C)c1ccc(C(O)CCCN2CCC(C(O)(c3ccccc3)c3ccccc3)CC2)cc1 (centres undefined) [TERFENADINE] | drug-induced liver injury reported |
| CN[C@@H](C)[C@H](O)c1ccccc1 [EPHEDRINE] | drug-induced liver injury reported |
| CC(CCc1ccc(O)cc1)NCCc1ccc(O)c(O)c1 (centres undefined) [DOBUTAMINE] | drug-induced liver injury reported |
| Cc1cccc(CN2CCN(C(c3ccccc3)c3ccc(Cl)cc3)CC2)c1 (centres undefined) [MECLIZINE] | no drug-induced liver injury reported |
| VITAMIN K | drug-induced liver injury reported |
| CC#C[C@]1(O)CC[C@H]2[C@@H]3CCC4=CC(=O)CCC4=C3[C@@H](c3ccc(N(C)C)cc3)C[C@@]21C [MIFEPRISTONE] | no drug-induced liver injury reported |
| CCC(=O)O[C@@H](O[P@](=O)(CCCCc1ccccc1)CC(=O)N1C[C@H](C2CCCCC2)C[C@H]1C(=O)O)C(C)C [FOSINOPRIL] | drug-induced liver injury reported |
| O=C(O)c1cc(-c2ccccc2)nc2ccccc12 [CINCHOPHEN] | drug-induced liver injury reported |
| O=C(N[C@H](CO)[C@H](O)c1ccc([N+](=O)[O-])cc1)C(Cl)Cl [CHLORAMPHENICOL] | drug-induced liver injury reported |
| CO/N=C(\C(=O)N[C@@H]1C(=O)N2C(C(=O)O)=C(COC(C)=O)CS[C@H]12)c1csc(N)n1 [CEFOTAXIME] | drug-induced liver injury reported |
| NCCCC[C@H](N[C@@H](CCc1ccccc1)C(=O)O)C(=O)N1CCC[C@H]1C(=O)O [LISINOPRIL ANHYDROUS] | drug-induced liver injury reported |
| CCC1(c2ccccc2)C(=O)NC(=O)NC1=O [PHENOBARBITAL] | drug-induced liver injury reported |
| Nc1ncn([C@H]2C[C@H](O)[C@@H](CO)O2)c(=O)n1 [DECITABINE] | drug-induced liver injury reported |
| IRON(II) CITRATE | no drug-induced liver injury reported |
| CN1C(=O)OC(C)(C)C1=O [TRIMETHADIONE] | drug-induced liver injury reported |
| O=C(CC1NCCCC1O)Cn1cnc2cc(Br)c(Cl)cc2c1=O (centres undefined) [HALOFUGINONE] | drug-induced liver injury reported |

Same assay, conditions: human, Liver

| Molecule | Hepatotoxicity |
| --- | --- |
| Cc1ccc(-c2cc(C(F)(F)F)nn2-c2ccc(S(N)(=O)=O)cc2)cc1 [CELECOXIB] | drug-induced liver injury reported |
| CN1C(C(=O)Nc2ccccn2)=C(O)c2sccc2S1(=O)=O [TENOXICAM] | drug-induced liver injury reported |

Tested on: Hepatotoxicity
Assay: Literature-mined compound from Fourches et al multi-species drug-induced liver injury (DILI) dataset, effect in non-rodents
Conditions: not given

| Molecule | Hepatotoxicity |
| --- | --- |
| c1ccc2[nH]c(-c3cscn3)nc2c1 [THIABENDAZOLE] | drug-induced liver injury reported |
| Cc1c(N(C)CS(=O)(=O)[O-])c(=O)n(-c2ccccc2)n1C.[Na+] [DIPYRONE SODIUM] | no drug-induced liver injury reported |
| LACTOSE, ANHYDROUS | no drug-induced liver injury reported |
| O=c1oc2ccccc2c(O)c1Cc1c(O)c2ccccc2oc1=O [DICUMAROL] | no drug-induced liver injury reported |
| CC1Cc2ccccc2N1NC(=O)c1ccc(Cl)c(S(N)(=O)=O)c1 (centres undefined) [INDAPAMIDE] | no drug-induced liver injury reported |
| CCC(C)n1ncn(-c2ccc(N3CCN(c4ccc(OCC5COC(Cn6cncn6)(c6ccc(Cl)cc6Cl)O5)cc4)CC3)cc2)c1=O (centres undefined) [ITRACONAZOLE] | no drug-induced liver injury reported |
| O=C(O)C(S)C(S)C(=O)O (centres undefined) | no drug-induced liver injury reported |
| CCCc1cc(C(N)=S)ccn1 [PROTIONAMIDE] | no drug-induced liver injury reported |
| CCC1(c2ccc(N)cc2)CCC(=O)NC1=O (centres undefined) [AMINOGLUTETHIMIDE] | no drug-induced liver injury reported |
| CCC(=O)O[C@H]1CC[C@H]2[C@@H]3CCC4=CC(=O)CC[C@]4(C)[C@H]3CC[C@]12C [TESTOSTERONE PROPIONATE] | no drug-induced liver injury reported |
| CC(C)(C)c1ccc(C(O)CCCN2CCC(C(O)(c3ccccc3)c3ccccc3)CC2)cc1 (centres undefined) [TERFENADINE] | no drug-induced liver injury reported |
| CN[C@@H](C)[C@H](O)c1ccccc1 [EPHEDRINE] | no drug-induced liver injury reported |
| CC(CCc1ccc(O)cc1)NCCc1ccc(O)c(O)c1 (centres undefined) [DOBUTAMINE] | drug-induced liver injury reported |
| Cc1cccc(CN2CCN(C(c3ccccc3)c3ccc(Cl)cc3)CC2)c1 (centres undefined) [MECLIZINE] | no drug-induced liver injury reported |
| VITAMIN K | no drug-induced liver injury reported |
| CC#C[C@]1(O)CC[C@H]2[C@@H]3CCC4=CC(=O)CCC4=C3[C@@H](c3ccc(N(C)C)cc3)C[C@@]21C [MIFEPRISTONE] | no drug-induced liver injury reported |
| CCC(=O)O[C@@H](O[P@](=O)(CCCCc1ccccc1)CC(=O)N1C[C@H](C2CCCCC2)C[C@H]1C(=O)O)C(C)C [FOSINOPRIL] | no drug-induced liver injury reported |
| O=C(O)c1cc(-c2ccccc2)nc2ccccc12 [CINCHOPHEN] | drug-induced liver injury reported |
| O=C(N[C@H](CO)[C@H](O)c1ccc([N+](=O)[O-])cc1)C(Cl)Cl [CHLORAMPHENICOL] | no drug-induced liver injury reported |
| CO/N=C(\C(=O)N[C@@H]1C(=O)N2C(C(=O)O)=C(COC(C)=O)CS[C@H]12)c1csc(N)n1 [CEFOTAXIME] | no drug-induced liver injury reported |
| NCCCC[C@H](N[C@@H](CCc1ccccc1)C(=O)O)C(=O)N1CCC[C@H]1C(=O)O [LISINOPRIL ANHYDROUS] | no drug-induced liver injury reported |
| CCC1(c2ccccc2)C(=O)NC(=O)NC1=O [PHENOBARBITAL] | drug-induced liver injury reported |
| Nc1ncn([C@H]2C[C@H](O)[C@@H](CO)O2)c(=O)n1 [DECITABINE] | no drug-induced liver injury reported |
| IRON(II) CITRATE | no drug-induced liver injury reported |
| CN1C(=O)OC(C)(C)C1=O [TRIMETHADIONE] | no drug-induced liver injury reported |
| O=C(CC1NCCCC1O)Cn1cnc2cc(Br)c(Cl)cc2c1=O (centres undefined) [HALOFUGINONE] | no drug-induced liver injury reported |

Same assay, conditions: Liver

| Molecule | Hepatotoxicity |
| --- | --- |
| Cc1ccc(-c2cc(C(F)(F)F)nn2-c2ccc(S(N)(=O)=O)cc2)cc1 [CELECOXIB] | no drug-induced liver injury reported |
| CN1C(C(=O)Nc2ccccn2)=C(O)c2sccc2S1(=O)=O [TENOXICAM] | no drug-induced liver injury reported |

Tested on: Hepatotoxicity
Assay: Literature-mined compound from Fourches et al multi-species drug-induced liver injury (DILI) dataset, effect in rodents
Conditions: rodentia

| Molecule | Hepatotoxicity |
| --- | --- |
| c1ccc2[nH]c(-c3cscn3)nc2c1 [THIABENDAZOLE] | drug-induced liver injury reported |
| Cc1c(N(C)CS(=O)(=O)[O-])c(=O)n(-c2ccccc2)n1C.[Na+] [DIPYRONE SODIUM] | drug-induced liver injury reported |
| LACTOSE, ANHYDROUS | drug-induced liver injury reported |
| O=c1oc2ccccc2c(O)c1Cc1c(O)c2ccccc2oc1=O [DICUMAROL] | drug-induced liver injury reported |
| CC1Cc2ccccc2N1NC(=O)c1ccc(Cl)c(S(N)(=O)=O)c1 (centres undefined) [INDAPAMIDE] | drug-induced liver injury reported |
| CCC(C)n1ncn(-c2ccc(N3CCN(c4ccc(OCC5COC(Cn6cncn6)(c6ccc(Cl)cc6Cl)O5)cc4)CC3)cc2)c1=O (centres undefined) [ITRACONAZOLE] | drug-induced liver injury reported |
| O=C(O)C(S)C(S)C(=O)O (centres undefined) | drug-induced liver injury reported |
| CCCc1cc(C(N)=S)ccn1 [PROTIONAMIDE] | no drug-induced liver injury reported |
| CCC1(c2ccc(N)cc2)CCC(=O)NC1=O (centres undefined) [AMINOGLUTETHIMIDE] | drug-induced liver injury reported |
| CCC(=O)O[C@H]1CC[C@H]2[C@@H]3CCC4=CC(=O)CC[C@]4(C)[C@H]3CC[C@]12C [TESTOSTERONE PROPIONATE] | drug-induced liver injury reported |
| CC(C)(C)c1ccc(C(O)CCCN2CCC(C(O)(c3ccccc3)c3ccccc3)CC2)cc1 (centres undefined) [TERFENADINE] | no drug-induced liver injury reported |
| CN[C@@H](C)[C@H](O)c1ccccc1 [EPHEDRINE] | no drug-induced liver injury reported |
| CC(CCc1ccc(O)cc1)NCCc1ccc(O)c(O)c1 (centres undefined) [DOBUTAMINE] | no drug-induced liver injury reported |
| Cc1cccc(CN2CCN(C(c3ccccc3)c3ccc(Cl)cc3)CC2)c1 (centres undefined) [MECLIZINE] | drug-induced liver injury reported |
| VITAMIN K | drug-induced liver injury reported |
| CC#C[C@]1(O)CC[C@H]2[C@@H]3CCC4=CC(=O)CCC4=C3[C@@H](c3ccc(N(C)C)cc3)C[C@@]21C [MIFEPRISTONE] | drug-induced liver injury reported |
| CCC(=O)O[C@@H](O[P@](=O)(CCCCc1ccccc1)CC(=O)N1C[C@H](C2CCCCC2)C[C@H]1C(=O)O)C(C)C [FOSINOPRIL] | no drug-induced liver injury reported |
| O=C(O)c1cc(-c2ccccc2)nc2ccccc12 [CINCHOPHEN] | no drug-induced liver injury reported |
| O=C(N[C@H](CO)[C@H](O)c1ccc([N+](=O)[O-])cc1)C(Cl)Cl [CHLORAMPHENICOL] | drug-induced liver injury reported |
| CO/N=C(\C(=O)N[C@@H]1C(=O)N2C(C(=O)O)=C(COC(C)=O)CS[C@H]12)c1csc(N)n1 [CEFOTAXIME] | no drug-induced liver injury reported |
| NCCCC[C@H](N[C@@H](CCc1ccccc1)C(=O)O)C(=O)N1CCC[C@H]1C(=O)O [LISINOPRIL ANHYDROUS] | drug-induced liver injury reported |
| CCC1(c2ccccc2)C(=O)NC(=O)NC1=O [PHENOBARBITAL] | drug-induced liver injury reported |
| Nc1ncn([C@H]2C[C@H](O)[C@@H](CO)O2)c(=O)n1 [DECITABINE] | no drug-induced liver injury reported |
| IRON(II) CITRATE | drug-induced liver injury reported |
| CN1C(=O)OC(C)(C)C1=O [TRIMETHADIONE] | drug-induced liver injury reported |
| O=C(CC1NCCCC1O)Cn1cnc2cc(Br)c(Cl)cc2c1=O (centres undefined) [HALOFUGINONE] | drug-induced liver injury reported |

Same assay, conditions: rodentia, Liver

| Molecule | Hepatotoxicity |
| --- | --- |
| Cc1ccc(-c2cc(C(F)(F)F)nn2-c2ccc(S(N)(=O)=O)cc2)cc1 [CELECOXIB] | drug-induced liver injury reported |
| CN1C(C(=O)Nc2ccccn2)=C(O)c2sccc2S1(=O)=O [TENOXICAM] | no drug-induced liver injury reported |

Source: ChEMBL document CHEMBL1697731, “Cheminformatics analysis of assertions mined from literature that describe drug-induced liver injury in different species” (Chem Res Toxicol, 2010)
